The source made the active and inactive calls.
What was measured:
[1] = target: Insulin-like growth factor 1 receptor (Homo sapiens, UniProt P08069)
[2] = target: T1, ATP-dependent RNA helicase DDX42 (Homo sapiens, UniProt Q86XP3)
T1 sequence (Q86XP3 whole entry): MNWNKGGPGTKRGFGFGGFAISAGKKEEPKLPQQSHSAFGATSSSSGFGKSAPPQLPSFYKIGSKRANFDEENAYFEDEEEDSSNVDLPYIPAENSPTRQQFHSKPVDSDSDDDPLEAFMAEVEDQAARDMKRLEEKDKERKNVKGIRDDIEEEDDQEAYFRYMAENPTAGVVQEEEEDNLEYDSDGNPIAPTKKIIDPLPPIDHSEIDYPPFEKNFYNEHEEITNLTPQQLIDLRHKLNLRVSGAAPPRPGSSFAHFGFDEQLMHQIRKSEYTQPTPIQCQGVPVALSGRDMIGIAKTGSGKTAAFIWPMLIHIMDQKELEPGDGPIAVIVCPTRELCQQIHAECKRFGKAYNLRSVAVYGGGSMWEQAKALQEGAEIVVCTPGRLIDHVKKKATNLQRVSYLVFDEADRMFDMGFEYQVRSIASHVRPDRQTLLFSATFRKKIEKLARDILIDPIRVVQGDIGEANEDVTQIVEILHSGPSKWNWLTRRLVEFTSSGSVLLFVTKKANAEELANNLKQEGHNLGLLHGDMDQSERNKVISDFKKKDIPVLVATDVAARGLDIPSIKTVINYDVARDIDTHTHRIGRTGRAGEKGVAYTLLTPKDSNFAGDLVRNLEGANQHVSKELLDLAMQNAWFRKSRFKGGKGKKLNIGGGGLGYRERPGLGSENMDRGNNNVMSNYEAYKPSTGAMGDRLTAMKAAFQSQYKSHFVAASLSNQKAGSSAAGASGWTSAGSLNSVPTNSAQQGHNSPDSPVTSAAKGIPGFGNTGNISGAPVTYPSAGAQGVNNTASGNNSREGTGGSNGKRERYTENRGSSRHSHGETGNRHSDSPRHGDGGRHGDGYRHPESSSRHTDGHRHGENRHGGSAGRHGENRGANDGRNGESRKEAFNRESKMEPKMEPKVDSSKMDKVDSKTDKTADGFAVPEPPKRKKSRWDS

[3] = target: T2, Cysteine--tRNA ligase, cytoplasmic (Homo sapiens, UniProt P49589)
T2 sequence (P49589 whole entry): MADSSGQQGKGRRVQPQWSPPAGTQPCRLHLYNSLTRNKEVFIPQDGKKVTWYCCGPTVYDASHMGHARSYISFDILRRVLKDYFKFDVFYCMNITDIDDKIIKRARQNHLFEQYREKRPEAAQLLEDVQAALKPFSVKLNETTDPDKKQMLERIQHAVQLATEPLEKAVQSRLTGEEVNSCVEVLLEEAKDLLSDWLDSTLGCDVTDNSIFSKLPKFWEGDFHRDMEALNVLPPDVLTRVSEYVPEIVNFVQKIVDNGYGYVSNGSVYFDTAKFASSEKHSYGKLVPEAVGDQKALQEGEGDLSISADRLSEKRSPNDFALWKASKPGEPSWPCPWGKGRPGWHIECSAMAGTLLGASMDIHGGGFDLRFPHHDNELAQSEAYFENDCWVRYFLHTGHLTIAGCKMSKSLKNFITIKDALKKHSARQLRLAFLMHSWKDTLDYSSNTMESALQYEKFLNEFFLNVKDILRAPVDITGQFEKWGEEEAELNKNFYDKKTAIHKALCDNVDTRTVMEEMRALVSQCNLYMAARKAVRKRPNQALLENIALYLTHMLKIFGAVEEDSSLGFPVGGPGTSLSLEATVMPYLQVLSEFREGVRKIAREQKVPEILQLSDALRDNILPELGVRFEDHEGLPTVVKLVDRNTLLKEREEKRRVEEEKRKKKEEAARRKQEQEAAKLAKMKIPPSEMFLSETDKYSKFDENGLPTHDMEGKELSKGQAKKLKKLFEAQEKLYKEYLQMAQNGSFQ

[4] = target: T3, Serine/threonine-protein kinase NLK (Homo sapiens, UniProt Q9UBE8)
T3 sequence (Q9UBE8 whole entry): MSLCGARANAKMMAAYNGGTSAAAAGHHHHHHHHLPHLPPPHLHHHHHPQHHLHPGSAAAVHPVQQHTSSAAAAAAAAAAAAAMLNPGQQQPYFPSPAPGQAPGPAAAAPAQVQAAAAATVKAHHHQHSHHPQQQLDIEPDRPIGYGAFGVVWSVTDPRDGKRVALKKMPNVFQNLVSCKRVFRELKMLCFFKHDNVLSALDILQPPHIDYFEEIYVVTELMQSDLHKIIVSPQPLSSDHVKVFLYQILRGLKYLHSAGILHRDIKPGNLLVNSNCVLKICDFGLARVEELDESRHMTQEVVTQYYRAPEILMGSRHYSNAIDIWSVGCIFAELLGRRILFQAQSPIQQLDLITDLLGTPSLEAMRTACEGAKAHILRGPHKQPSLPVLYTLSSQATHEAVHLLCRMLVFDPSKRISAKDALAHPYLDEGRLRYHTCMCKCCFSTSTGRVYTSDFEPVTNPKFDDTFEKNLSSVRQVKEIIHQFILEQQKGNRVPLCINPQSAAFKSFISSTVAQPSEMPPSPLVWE

Ephrin type-A receptor 7 = Ephrin type-A receptor 7 (Homo sapiens, UniProt Q15375)
Ephrin type-A receptor 7, sequence (Q15375 whole entry): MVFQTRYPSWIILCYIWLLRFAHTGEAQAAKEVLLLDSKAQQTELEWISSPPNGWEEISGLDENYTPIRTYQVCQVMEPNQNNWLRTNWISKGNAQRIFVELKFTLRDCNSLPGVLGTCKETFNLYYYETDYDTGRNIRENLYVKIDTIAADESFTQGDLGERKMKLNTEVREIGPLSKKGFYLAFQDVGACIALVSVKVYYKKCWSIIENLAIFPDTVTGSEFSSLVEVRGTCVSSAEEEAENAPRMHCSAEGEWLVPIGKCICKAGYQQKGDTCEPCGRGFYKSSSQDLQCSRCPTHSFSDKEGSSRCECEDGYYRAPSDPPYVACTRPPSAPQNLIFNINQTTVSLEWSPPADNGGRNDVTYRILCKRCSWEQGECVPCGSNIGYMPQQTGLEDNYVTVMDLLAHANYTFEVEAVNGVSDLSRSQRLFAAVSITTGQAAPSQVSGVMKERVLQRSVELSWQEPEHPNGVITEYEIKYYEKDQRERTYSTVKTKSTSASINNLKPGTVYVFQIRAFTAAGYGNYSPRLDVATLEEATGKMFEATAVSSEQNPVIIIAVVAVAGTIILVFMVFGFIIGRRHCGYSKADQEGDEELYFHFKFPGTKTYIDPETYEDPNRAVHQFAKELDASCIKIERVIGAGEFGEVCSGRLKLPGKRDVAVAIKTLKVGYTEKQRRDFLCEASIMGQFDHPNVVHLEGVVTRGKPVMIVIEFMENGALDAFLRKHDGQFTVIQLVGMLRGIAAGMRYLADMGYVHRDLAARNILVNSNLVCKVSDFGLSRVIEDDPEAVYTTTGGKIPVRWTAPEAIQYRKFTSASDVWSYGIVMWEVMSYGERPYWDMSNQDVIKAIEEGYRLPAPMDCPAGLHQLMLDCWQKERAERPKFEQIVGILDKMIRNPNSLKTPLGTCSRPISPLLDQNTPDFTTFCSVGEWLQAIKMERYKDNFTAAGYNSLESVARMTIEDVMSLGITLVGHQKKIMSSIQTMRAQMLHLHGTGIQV

[5] = target: cAMP-dependent protein kinase type II-alpha regulatory subunit (Homo sapiens, UniProt P13861)
cAMP-dependent protein kinase type II-alpha regulatory subunit, sequence (P13861 whole entry): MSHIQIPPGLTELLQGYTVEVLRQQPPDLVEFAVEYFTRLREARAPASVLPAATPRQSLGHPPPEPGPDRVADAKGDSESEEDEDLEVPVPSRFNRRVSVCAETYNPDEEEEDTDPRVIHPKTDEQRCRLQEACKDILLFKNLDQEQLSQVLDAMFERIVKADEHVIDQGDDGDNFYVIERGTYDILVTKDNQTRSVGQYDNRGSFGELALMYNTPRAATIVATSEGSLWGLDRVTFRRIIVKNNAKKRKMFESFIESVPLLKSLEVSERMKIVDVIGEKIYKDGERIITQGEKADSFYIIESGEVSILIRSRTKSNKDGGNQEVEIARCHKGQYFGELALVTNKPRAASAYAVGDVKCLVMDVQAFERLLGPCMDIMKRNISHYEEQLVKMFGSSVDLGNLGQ

[6] = target: Inosine-5'-monophosphate dehydrogenase 2 (Homo sapiens, UniProt P12268)
[7] = target: Protein kinase C theta type (Homo sapiens, UniProt Q04759)
Protein kinase C theta type, sequence (Q04759 whole entry): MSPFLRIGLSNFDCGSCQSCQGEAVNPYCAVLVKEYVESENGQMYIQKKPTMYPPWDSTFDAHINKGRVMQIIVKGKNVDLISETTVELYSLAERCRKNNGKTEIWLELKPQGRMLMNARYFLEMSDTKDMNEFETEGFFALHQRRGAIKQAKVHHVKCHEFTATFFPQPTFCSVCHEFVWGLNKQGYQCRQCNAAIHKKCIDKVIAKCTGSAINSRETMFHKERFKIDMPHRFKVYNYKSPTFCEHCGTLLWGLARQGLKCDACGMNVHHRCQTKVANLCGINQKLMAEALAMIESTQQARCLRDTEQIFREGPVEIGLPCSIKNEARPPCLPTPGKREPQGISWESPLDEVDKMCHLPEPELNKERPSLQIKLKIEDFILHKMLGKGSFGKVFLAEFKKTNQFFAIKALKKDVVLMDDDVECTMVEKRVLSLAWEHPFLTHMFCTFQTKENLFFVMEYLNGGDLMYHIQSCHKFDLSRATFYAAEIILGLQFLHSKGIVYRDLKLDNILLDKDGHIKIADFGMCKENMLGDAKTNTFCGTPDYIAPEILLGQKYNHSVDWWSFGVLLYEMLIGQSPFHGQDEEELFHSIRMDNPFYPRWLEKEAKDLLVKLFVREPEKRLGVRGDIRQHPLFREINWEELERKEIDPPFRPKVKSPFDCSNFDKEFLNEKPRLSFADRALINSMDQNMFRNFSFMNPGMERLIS
Note: in the data inactive means no Kd found up to 30 µM.

Insulin-like growth factor 1 receptor, sequence (P08069 31-736 limits assumed): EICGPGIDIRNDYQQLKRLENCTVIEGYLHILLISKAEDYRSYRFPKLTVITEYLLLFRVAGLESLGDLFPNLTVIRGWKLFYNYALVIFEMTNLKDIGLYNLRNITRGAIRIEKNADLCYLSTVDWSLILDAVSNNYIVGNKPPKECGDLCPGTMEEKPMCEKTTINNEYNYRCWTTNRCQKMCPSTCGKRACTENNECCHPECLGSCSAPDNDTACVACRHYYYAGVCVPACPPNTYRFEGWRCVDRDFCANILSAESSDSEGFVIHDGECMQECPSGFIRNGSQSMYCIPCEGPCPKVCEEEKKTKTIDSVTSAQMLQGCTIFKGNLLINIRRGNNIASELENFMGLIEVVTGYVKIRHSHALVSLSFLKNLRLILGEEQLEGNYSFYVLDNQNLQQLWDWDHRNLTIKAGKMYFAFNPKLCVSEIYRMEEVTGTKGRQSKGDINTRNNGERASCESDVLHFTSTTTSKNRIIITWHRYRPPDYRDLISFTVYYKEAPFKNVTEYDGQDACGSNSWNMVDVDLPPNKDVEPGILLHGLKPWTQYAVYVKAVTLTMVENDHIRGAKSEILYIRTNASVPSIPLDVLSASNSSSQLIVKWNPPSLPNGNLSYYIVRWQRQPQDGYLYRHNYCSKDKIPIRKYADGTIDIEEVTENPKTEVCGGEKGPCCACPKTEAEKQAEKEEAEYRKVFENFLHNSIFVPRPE
Insulin-like growth factor 1 receptor, sequence (P08069 741-1367 limits assumed): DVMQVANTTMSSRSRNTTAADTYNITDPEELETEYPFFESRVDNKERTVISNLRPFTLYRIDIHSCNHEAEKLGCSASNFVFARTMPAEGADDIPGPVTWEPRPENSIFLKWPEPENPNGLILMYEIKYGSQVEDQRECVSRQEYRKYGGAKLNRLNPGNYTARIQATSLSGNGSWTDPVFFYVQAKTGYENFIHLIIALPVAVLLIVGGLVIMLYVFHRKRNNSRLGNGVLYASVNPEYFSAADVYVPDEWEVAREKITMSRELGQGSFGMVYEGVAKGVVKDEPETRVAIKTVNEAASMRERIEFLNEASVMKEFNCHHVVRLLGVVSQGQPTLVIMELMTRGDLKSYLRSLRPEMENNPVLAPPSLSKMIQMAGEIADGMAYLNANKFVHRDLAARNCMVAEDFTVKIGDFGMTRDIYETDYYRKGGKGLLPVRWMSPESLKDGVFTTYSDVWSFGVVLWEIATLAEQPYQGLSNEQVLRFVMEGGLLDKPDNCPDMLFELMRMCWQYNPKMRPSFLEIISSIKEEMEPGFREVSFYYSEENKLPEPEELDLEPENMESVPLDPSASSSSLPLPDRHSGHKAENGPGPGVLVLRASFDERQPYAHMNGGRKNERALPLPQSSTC

| Compound | Kd [1] | Kd [2] | Kd [3] | Kd [4] | Kd (Ephrin type-A receptor 7) | Kd [5] | Kd [6] | Kd [7] |
| --- | --- | --- | --- | --- | --- | --- | --- | --- |
| CC(=O)c1cnc2ccc(-c3cc(Cl)c(O)c(Cl)c3)nc2c1N[C@H]1CC[C@H](CN(C)C)CC1 | > 30 µM (inactive) | > 30 µM (inactive) | > 30 µM (inactive) | 0.024 µM (active) | 0.016 µM | > 30 µM (inactive) |  |  |
| CCNC(=O)C#Cc1ccc2c(c1)NC(=O)/C2=C(\Nc1ccc(CN(C)C)cc1)c1ccccc1 | > 30 µM (inactive) | > 30 µM (inactive) | > 30 µM (inactive) | > 30 µM (inactive) | > 30 µM (inactive) | > 30 µM (inactive) | > 30 µM (inactive) |  |
| C=CC(=O)N1CCC[C@H](n2c(=O)n(-c3ccc(Oc4ccccc4)cc3)c3c(N)ncnc32)C1 | > 30 µM (inactive) | > 30 µM (inactive) | > 30 µM (inactive) | > 30 µM (inactive) | > 30 µM (inactive) | > 30 µM (inactive) | > 30 µM (inactive) | > 30 µM (inactive) |
| COCc1c(-c2ccc(NC(=O)Nc3cc(C(F)(F)F)ccc3F)c(F)c2)c2c(N)ncnn2c1CN1CCOCC1 | > 30 µM (inactive) | > 30 µM (inactive) | > 30 µM (inactive) | > 30 µM (inactive) | > 30 µM (inactive) | > 30 µM (inactive) | > 30 µM (inactive) |  |
| Nc1ncnc2c1c(-c1cccc(OCc3ccccc3)c1)cn2[C@H]1C[C@@H](CN2CCC2)C1 [AEW-541] |  | > 30 µM (inactive) | > 30 µM (inactive) | > 30 µM (inactive) | > 30 µM (inactive) | > 30 µM (inactive) |  | > 30 µM (inactive) |
| COc1cc(Nc2ncc3c(n2)-c2ccc(Cl)cc2C(c2c(F)cccc2OC)=NC3)ccc1C(=O)O [ALISERTIB] |  | > 30 µM (inactive) | > 30 µM (inactive) | > 30 µM (inactive) | > 30 µM (inactive) | > 30 µM (inactive) | > 30 µM (inactive) |  |
| Cc1nc(NC(=O)N2CCC[C@H]2C(N)=O)sc1-c1ccnc(C(C)(C)C(F)(F)F)c1 [ALPELISIB] | > 30 µM (inactive) |  | > 30 µM (inactive) |  | > 30 µM (inactive) | > 30 µM (inactive) | > 30 µM (inactive) | > 30 µM (inactive) |
| Cc1cc(C(=O)NOCCO)c(Nc2ccc(I)cc2F)n(C)c1=O [AZD-8330] | > 30 µM (inactive) | > 30 µM (inactive) | > 30 µM (inactive) | > 30 µM (inactive) |  | > 30 µM (inactive) | > 30 µM (inactive) | > 30 µM (inactive) |
| Cc1cc(Nc2ncc(Cl)c(Nc3ccccc3S(=O)(=O)C(C)C)n2)c(OC(C)C)cc1C1CCNCC1 [CERITINIB] |  | > 30 µM (inactive) | > 30 µM (inactive) | > 30 µM (inactive) | > 30 µM (inactive) | > 30 µM (inactive) |  | > 30 µM (inactive) |
| C#Cc1cccc(Nc2ncnc3cc(OC)c(OCCCCCCC(=O)NO)cc23)c1 [CUDC-101] | > 30 µM (inactive) | > 30 µM (inactive) | > 30 µM (inactive) | > 30 µM (inactive) |  | > 30 µM (inactive) | > 30 µM (inactive) | > 30 µM (inactive) |
| CC(C)(C)c1nc(-c2cccc(NS(=O)(=O)c3c(F)cccc3F)c2F)c(-c2ccnc(N)n2)s1 [DABRAFENIB] |  | > 30 µM (inactive) | > 30 µM (inactive) | > 30 µM (inactive) | > 30 µM (inactive) | > 30 µM (inactive) | > 30 µM (inactive) |  |
| CNC(=O)c1nn(C)c2c1C(C)(C)Cc1cnc(Nc3ccc(N4CCN(C)CC4)cc3)nc1-2 [MILCICLIB] | > 30 µM (inactive) | > 30 µM (inactive) | > 30 µM (inactive) | > 30 µM (inactive) | > 30 µM (inactive) | > 30 µM (inactive) |  | > 30 µM (inactive) |
| FC(F)(F)c1ccc(/C=C/c2nc(COc3ccc(CCCCn4ccnn4)cc3)co2)cc1 [MUBRITINIB] | > 30 µM (inactive) |  | > 30 µM (inactive) | > 30 µM (inactive) | > 30 µM (inactive) | > 30 µM (inactive) |  | > 30 µM (inactive) |
| Cc1[nH]c(/C=C2\C(=O)Nc3ccccc32)c(C)c1CCC(=O)O [ORANTINIB] |  | > 30 µM (inactive) | > 30 µM (inactive) | > 30 µM (inactive) | > 30 µM (inactive) | > 30 µM (inactive) | > 30 µM (inactive) |  |
| CCCCCCCCCCCCCCCCCCOP(=O)([O-])OC1CC[N+](C)(C)CC1 [PERIFOSINE] | > 30 µM (inactive) | > 30 µM (inactive) | > 30 µM (inactive) | > 30 µM (inactive) | > 30 µM (inactive) |  | > 30 µM (inactive) | > 30 µM (inactive) |
| Cc1nc(Nc2n[nH]c3c2CN(C(=O)N[C@H](CN(C)C)c2ccccc2)C3(C)C)c2sccc2n1 [PF-03758309] | > 30 µM (inactive) | > 30 µM (inactive) | > 30 µM (inactive) | > 30 µM (inactive) | > 30 µM (inactive) | > 30 µM (inactive) |  | 0.085 µM (active) |
| CC(=O)NCC(=O)N1[C@@H]2CC[C@H]1c1ccc(Nc3ncc(C(F)(F)F)c(NC4CCC4)n3)cc12 [PF-03814735] |  | > 30 µM (inactive) | > 30 µM (inactive) | > 30 µM (inactive) | > 30 µM (inactive) | > 30 µM (inactive) |  |  |
| O=C(NOCCO)c1cc(CN2OCCCC2=O)c(F)c(F)c1Nc1ccc(I)cc1F [RO-4987655] |  | > 30 µM (inactive) | > 30 µM (inactive) |  |  | > 30 µM (inactive) | > 30 µM (inactive) |  |
| CO[C@H]1C[C@@H]2CC[C@@H](C)[C@@](O)(O2)C(=O)C(=O)N2CCCC[C@H]2C(=O)O[C@H]([C@H](C)C[C@@H]2CC[C@@H](O)[C@H](OC)C2)CC(=O)[C@H](C)/C=C(\C)[C@@H](O)[C@@H](OC)C(=O)[C@H](C)C[C@H](C)/C=C/C=C/C=C/1C [SIROLIMUS] | > 30 µM (inactive) |  | > 30 µM (inactive) | > 30 µM (inactive) |  | > 30 µM (inactive) | > 30 µM (inactive) | > 30 µM (inactive) |
| O=C1NC(=O)[C@@H](c2cn3c4c(cccc24)CCC3)[C@@H]1c1c[nH]c2ccccc12 [TIVANTINIB] | > 30 µM (inactive) | > 30 µM (inactive) | > 30 µM (inactive) | > 30 µM (inactive) |  | > 30 µM (inactive) | > 30 µM (inactive) | > 30 µM (inactive) |
| CC(C)c1cc(CNc2nc(Nc3cc(C4CC4)[nH]n3)cc(N3CCN(C)CC3)n2)on1 [XL-228] |  |  | > 30 µM (inactive) | > 30 µM (inactive) | 0.017 µM (active) | > 30 µM (inactive) | > 30 µM (inactive) | > 30 µM (inactive) |
